Assay results reported in patent US20230117034A1, “PYRAZOLOTRIAZINES” (Bayer Aktiengesellschaft, priority 2019, published 2023).
Read-outs that look alike come from different tables or passages of the source.

How the values were obtained:
[1] = test system: CAL-120, human breast adenocarcinoma cells; experiment: Proliferation assay CAL-120 (crystal violet, 4 days); assay type: cell-based; details: CAL-120 cells, median, read-out: Prolif-CAL-120, IC50-[mol/l] (median)
Summary of the method: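 Following a 24 h attachment in 10% fetal calf serum medium, cells receive test substance over 0.01-10 µmol/L for 4 days. Dye retained by fixed cells is eluted and read at 595 nm; cell number change is referenced to day-0 and untreated wells.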

[2] = test system: BRCA1 mRNA expression in MDA-MB-231 cells; experiment: qRT-PCR assay: BRCA1 mRNA expression in MDA-MB-231; assay type: cell-based, human; details: Homo sapiens, MDA-MB-231, Inhibition of BRCA1 mRNA expression in MDA-MB-231 cells; median; read-out: RTqPCR-MDA-MB-231, IC50, BRCA1 (median)
Summary of the method: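 GAPDH-normalised RT-qPCR measures the transcript after 24 h continuous compound treatment of cells seeded at 200,000/well one day earlier.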

CDK9/CycT1 = target: T1, CDK9/CycT1 (Homo sapiens, UniProt P50750); experiment: CDK9/CycT1 high ATP kinase assay (TR-FRET, 2 mM ATP); assay type: biochemical; details: 2 mM ATP (high ATP); median; read-out: CDK9/CyclinT1, 2 mM ATP (high ATP), IC50 (median)
T1 construct: Recombinant full-length His-tagged human CDK9 and CycT1; purchased Life Technologies PV4131; host or cells: insect cells
Summary of the method: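 Full-length His-tagged human CDK9/CycT1 (insect cell, ~0.5 μg/mL) preincubated 15 min at 22 °C with compound in Tris pH 8.0, MgCl2, DTT buffer before reaction with biotinylated peptide substrate at high ATP (2 mM).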

T1 sequence (P50750 whole entry): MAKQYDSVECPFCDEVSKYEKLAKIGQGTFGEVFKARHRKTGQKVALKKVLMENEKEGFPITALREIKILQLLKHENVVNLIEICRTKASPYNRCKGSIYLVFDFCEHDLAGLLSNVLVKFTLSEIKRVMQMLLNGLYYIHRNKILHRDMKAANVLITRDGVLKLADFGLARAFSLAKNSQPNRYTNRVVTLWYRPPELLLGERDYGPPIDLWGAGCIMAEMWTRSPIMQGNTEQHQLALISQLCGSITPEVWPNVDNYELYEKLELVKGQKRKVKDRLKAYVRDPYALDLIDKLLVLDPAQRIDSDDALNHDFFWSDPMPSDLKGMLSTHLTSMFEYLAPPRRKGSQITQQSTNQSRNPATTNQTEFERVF
T1 sequence (O60563 whole entry partner): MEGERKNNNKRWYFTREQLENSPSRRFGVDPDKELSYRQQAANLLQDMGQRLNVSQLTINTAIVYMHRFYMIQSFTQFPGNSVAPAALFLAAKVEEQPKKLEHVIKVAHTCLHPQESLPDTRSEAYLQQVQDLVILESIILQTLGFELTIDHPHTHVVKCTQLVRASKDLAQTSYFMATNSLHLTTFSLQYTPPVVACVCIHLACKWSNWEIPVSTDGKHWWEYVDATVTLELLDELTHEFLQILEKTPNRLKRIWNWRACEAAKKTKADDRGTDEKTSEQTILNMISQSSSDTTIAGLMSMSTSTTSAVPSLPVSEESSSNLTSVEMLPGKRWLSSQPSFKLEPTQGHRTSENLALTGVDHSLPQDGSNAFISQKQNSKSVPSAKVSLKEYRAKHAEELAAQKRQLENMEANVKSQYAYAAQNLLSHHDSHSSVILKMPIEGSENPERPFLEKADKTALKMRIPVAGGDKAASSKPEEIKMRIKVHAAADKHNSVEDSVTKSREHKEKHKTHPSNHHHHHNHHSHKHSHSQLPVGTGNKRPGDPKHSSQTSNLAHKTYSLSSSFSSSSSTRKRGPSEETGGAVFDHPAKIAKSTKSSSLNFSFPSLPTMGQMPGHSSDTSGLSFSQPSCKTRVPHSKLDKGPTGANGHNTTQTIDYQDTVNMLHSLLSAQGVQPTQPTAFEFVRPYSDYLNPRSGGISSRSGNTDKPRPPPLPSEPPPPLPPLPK

In the case of `FC1(F)CC1c1cnn2c(NCc3nc4ccccc4[nH]3)nc(N3CCOCC3)nc12` (stereo not drawn) [Example 279, N-[(1H-benzimidazol-2-yl)methyl]-8-(2,2-difluorocyclopropyl)-2-(morpholin-4-yl)pyrazolo[1,5-a][1,3,5]triazin-4-amine], the IC50 ([1]; Homo sapiens, CAL-120, 96 h) is reported as 17.2 nM, the IC50 [2] is reported as 12 nM and the IC50 (CDK9/CycT1) is reported as > 20000 nM.
With `CC1CN(C)CCN1c1nc(NCc2nc3ccccc3[nH]2)n2ncc(Br)c2n1` (single isomer, unassigned; enantiomer 1) [Example 260, N-(1H-benzimidazol-2-ylmethyl)-8-bromo-2-[(2R or S)-2,4-dimethylpiperazin-1-yl]pyrazolo[1,5-a][1,3,5]triazin-4-amine (Enantiomer 1)] the IC50 [1] was 6.03 nM, the IC50 [2] was 3.42 nM and the IC50 (CDK9/CycT1) was > 20000 nM.
In the case of `CN1CCN(c2nc(NCc3nc4cc(F)c(Cl)cc4[nH]3)n3ncc(C4CC4)c3n2)CC1` [Example 309, N-[(6-chloro-5-fluoro-1H-benzimidazol-2-yl)methyl]-8-cyclopropyl-2-(4-methylpiperazin-1-yl)pyrazolo[1,5-a][1,3,5]triazin-4-amine], the IC50 ([1]; Homo sapiens, CAL-120, 96 h) is reported as 4.11 nM, the IC50 [2] is reported as 5.83 nM and the IC50 (CDK9/CycT1) is reported as > 20000 nM.
In the case of `c1ccc2[nH]c(CNc3nc(N4CCNCC4)nc4c(C5CC5)cnn34)nc2c1` [Example 247, N-[(1H-benzimidazol-2-yl)methyl]-8-cyclopropyl-2-(piperazin-1-yl)pyrazolo[1,5-a][1,3,5]triazin-4-amine], the IC50 ([1]; Homo sapiens, CAL-120, 96 h) is reported as 9.79 nM, the IC50 [2] is reported as 5.55 nM and the IC50 (CDK9/CycT1) is reported as > 20000 nM.
In the case of `N[C@@H]1CCN(c2nc(NCc3nc4ccccc4[nH]3)n3ncc(Br)c3n2)C1` [Example 250, 2-[(3R)-3-aminopyrrolidin-1-yl]-N-[(1H-benzimidazol-2-yl)methyl]-8-bromopyrazolo[1,5-a][1,3,5]triazin-4-amine], the IC50 ([1]; Homo sapiens, CAL-120, 96 h) is reported as 3.49 nM, the IC50 [2] is reported as 10.5 nM and the IC50 (CDK9/CycT1) is reported as > 20000 nM.
An IC50 ([1]; Homo sapiens, CAL-120, 96 h) of 35.7 nM, an IC50 [2] of 10 nM and an IC50 (CDK9/CycT1) of 3060 nM were found for `Brc1cnn2c(NCc3nnc(-c4ccccc4)[nH]3)nc(N3CCOCC3)nc12` [Example 24, 8-bromo-2-(morpholin-4-yl)-N-[(5-phenyl-4H-1,2,4-triazol-3-yl)methyl]pyrazolo[1,5-a][1,3,5]triazin-4-amine] in this work.
With `c1ccc2[nH]c(CNc3nc(N4CCOCC4)nc4c(C5CCC5)cnn34)nc2c1` [Example 263, N-[(1H-benzimidazol-2-yl)methyl]-8-cyclobutyl-2-(morpholin-4-yl)pyrazolo[1,5-a][1,3,5]triazin-4-amine] the IC50 ([1]; Homo sapiens, CAL-120, 96 h) was 28.9 nM, the IC50 [2] was 28.8 nM and the IC50 (CDK9/CycT1) was > 20000 nM.
With `Fc1cccc2[nH]c(CNc3nc(N4CCOCC4)nc4c(C(F)(F)F)cnn34)nc12` [Example 274, N-[(4-fluoro-1H-benzimidazol-2-yl)methyl]-2-(morpholin-4-yl)-8-(trifluoromethyl)pyrazolo[1,5-a][1,3,5]triazin-4-amine] the IC50 ([1]; Homo sapiens, CAL-120, 96 h) was 4.89 nM, the IC50 [2] was 1.92 nM and the IC50 (CDK9/CycT1) was > 20000 nM.
With `Brc1cnn2c(NCc3nc4ccccc4[nH]3)nc(N3C[C@H]4CNC[C@H]4C3)nc12` [Example 283, N-[(1H-benzimidazol-2-yl)methyl]-8-bromo-2-[(3aR,6aS)-hexahydropyrrolo[3,4-c]pyrrol-2(1H)-yl]pyrazolo[1,5-a][1,3,5]triazin-4-amine] the IC50 ([1]; Homo sapiens, CAL-120, 96 h) was 26.1 nM, the IC50 [2] was 9.13 nM and the IC50 (CDK9/CycT1) was > 20000 nM.
With `Brc1cnn2c(NCc3nc4ccccc4[nH]3)nc(N3C[C@@H]4C[C@H]3CN4)nc12` [Example 270, N-[(1H-benzimidazol-2-yl)methyl]-8-bromo-2-[(1S,4S)-2,5-diazabicyclo[2.2.1]heptan-2-yl]pyrazolo[1,5-a][1,3,5]triazin-4-amine] the IC50 ([1]; Homo sapiens, CAL-120, 96 h) was 6.92 nM, the IC50 [2] was 6.41 nM and the IC50 (CDK9/CycT1) was > 20000 nM.
